From ChEMBL document CHEMBL1141524 (Bioorg Med Chem Lett, 2008)
Several values for one entry are separate records, joined by “and”; a condition that tells them apart may be missing. Equal entries are not always repeated. Non-standard residues stand in square brackets, D forms with d. Residues, ends and D or L forms follow the SMILES beside them. Gly(N-4-hydroxybenzyl) = O=C(O)CNCc1ccc(O)cc1

Assay: Displacement of [3H]neurotensin from pig NTR1
Design: species or system Sus scrofa
`CC[C@H](C)[C@H](NC(=O)[C@H](Cc1ccc(O)cc1)N1CC=C[C@]2(CCCN2C(=O)[C@H](CCCNC(=N)N)NC(=O)[C@@H](N)CCCNC(=N)N)C1=O)C(=O)N[C@@H](CC(C)C)C(=O)O` showed a Ki of 7400 nM. `CC[C@H](C)[C@H](NC(=O)[C@H](Cc1ccc(O)cc1)NC(=O)[C@@H]1CCCN1C(=O)[C@H](CCCCN)NC(=O)CNCCCCN)C(=O)N[C@@H](CC(C)C)C(=O)O` showed a Ki of 0.45 nM. Work on `CC[C@H](C)[C@H](NC(=O)[C@H](Cc1ccc(O)cc1)NC(=O)[C@@H]1CCCN1C(=O)[C@H](CCCCN)NC(=O)[C@@H](N)CCCCN)C(=O)N[C@@H](CC(C)C)C(=O)O` yielded a Ki of 2.6 nM. `CC[C@H](C)[C@H](NC(=O)[C@H](Cc1ccc(O)cc1)NC(=O)C[C@@H]1CCCN1C(=O)[C@H](CCCNC(=N)N)NC(=O)[C@@H](N)CCCNC(=N)N)C(=O)N[C@@H](CC(C)C)C(=O)O` showed a Ki of 28 nM. For `CC[C@H](C)[C@H](NC(=O)[C@H](Cc1ccc(O)cc1)NC(=O)[C@@H]1CCCN1C(=O)[C@H](CCCNC(=N)N)NC(=O)[C@@H](N)CCCNC(=N)N)C(=O)N[C@@H](CC(C)C)C(N)=O`, the Ki was 0.18 nM. `CC[C@H](C)[C@H](NC(=O)[C@H](Cc1ccc(O)cc1)NC(=O)[C@@H]1CCCN1C(=O)[C@H](CCCNC(=N)N)NC(=O)CCC(=O)O)C(=O)N[C@@H](CC(C)C)C(=O)O` showed a Ki of 2300 nM. `CC[C@@H](C)[C@H](NC(=O)[C@H](Cc1ccc(O)cc1)N1CC=CC[C@]2(CCCN2C(=O)[C@H](CCCNC(=N)N)NC(=O)[C@@H](N)CCCNC(=N)N)C1=O)C(=O)N[C@@H](CC(C)C)C(=O)O` gave a Ki of 18000 nM. For `CC[C@H](C)[C@H](NC(=O)[C@H](Cc1ccc(O)cc1)N1CC/C=C\C[C@H]2CCN(C(=O)[C@H](CCCNC(=N)N)NC(=O)[C@@H](N)CCCNC(=N)N)[C@@H]2C1=O)C(=O)N[C@@H](CC(C)C)C(=O)O`, the Ki was 2400 nM and 8600 nM. Work on `CC[C@H](C)[C@H](NC(=O)[C@H](Cc1ccc(O)cc1)NC(=O)[C@@H]1CCCN1C(=O)CN(CCCCN)C(=O)[C@@H](N)CCCCN)C(=O)N[C@@H](CC(C)C)C(=O)O` yielded a Ki of 5.7 nM. Work on `CC[C@H](C)[C@H](NC(=O)[C@H](Cc1ccc(O)cc1)N1C(=O)NC(=O)C2(CCCN2C(=O)[C@H](CCCNC(=N)N)NC(=O)[C@@H](N)CCCNC(=N)N)C1=O)C(=O)N[C@@H](CC(C)C)C(=O)O` (some centres not stated) yielded a Ki of 10000 nM. In the case of `CC[C@H](C)[C@H](NC(=O)[C@H](Cc1ccc(O)cc1)NC(=O)[C@@H]1CCCN1C(=O)[C@H](CCCNC(=N)N)NC(=O)C[N+](C)(C)C)C(=O)N[C@@H](CC(C)C)C(=O)O`, the Ki is reported as 0.65 nM. For `CC[C@H](C)[C@H](NC(=O)CN(Cc1ccc(O)cc1)C(=O)[C@@H]1CCCN1C(=O)[C@H](CCCCN)NC(=O)[C@@H](N)CCCCN)C(=O)N[C@@H](CC(C)C)C(=O)O` (H-KKP[Gly(N-4-hydroxybenzyl)]IL-OH), the Ki was 11000 nM. `CC[C@H](C)[C@H](NC(=O)[C@H](Cc1ccc(O)cc1)N1C(=O)NC(=O)C2(CCCN2C(=O)[C@H](CCCNC(=N)N)NC(=O)[C@@H](N)CCCNC(=N)N)C1=O)C(=O)N[C@@H](CC(C)C)C(=O)O` (single isomer, unassigned; diastereomer 1) showed a Ki of 1400 nM. With H-DRPYIL-OH the Ki was 150 nM. H-RRAPYIL-OH gave a Ki of 9.6 nM. Work on H-RRPYAIL-OH yielded a Ki of 6.8 nM. Compound H-RRPYILA-OH has a Ki of 0.27 nM.
